{
  "source": "patent US5232849A",
  "about": "“Bacteriocin from lactococcus lactis subspecies lactis” (Quest International Flavors & Food Ingredients Company …, priority 1992, dated 1993)",
  "assay_in_all_cases": "Spectrum of antimicrobial activity",
  "parameters_in_all_cases": "key: + = inhibition; - = no inhibition",
  "conditions_in_all_cases": "pure, titer 3200 AU/ml",
  "key": {"L. plantarum 346": {"system": "L. plantarum 346", "assay_type": "cell-based, Lactobacillus plantarum", "method": "(§1) Bacteriocin assay. To ascertain if the antibacterial substance is secreted into liquid medium, the cultures were grown in MRS broth and cell free filtrates of turbid cultures were made and the filtrate posted on a seeded semisolid agar overlay of the indicator. Antibacterial activity was quantitated by assigning arbitrary units. One arbitrary unit (AU) was defined as 5 μl of the culture supernatant yielding a definite, clear zone of inhibition on the indicator lawn. The titer was expressed as the reciprocal of the highest dilution of supernatant showing inhibition."}, "L. plantarum 355": {"system": "L. plantarum 355", "assay_type": "cell-based, Lactobacillus plantarum", "method": "as §1"}, "P. acidilactici A": {"system": "P. acidilactici A", "assay_type": "cell-based, Pediococcus acidilactici", "method": "as §1"}, "P. acidilactici D": {"system": "P. acidilactici D", "assay_type": "cell-based, Pediococcus acidilactici", "method": "as §1"}, "P. acidilactici B": {"system": "P. acidilactici B", "assay_type": "cell-based, Pediococcus acidilactici", "method": "as §1"}, "P. acidilactici PAC 1.0": {"system": "P. acidilactici PAC 1.0", "assay_type": "cell-based, Pediococcus acidilactici", "method": "as §1"}, "P. acidilactici C": {"system": "P. acidilactici C", "assay_type": "cell-based, Pediococcus acidilactici", "method": "as §1"}, "L. fermentum 342": {"system": "L. fermentum 342", "assay_type": "cell-based, Lactobacillus fermentum", "method": "as §1"}, "L. fermentum 701": {"system": "L. fermentum 701", "assay_type": "cell-based, Lactobacillus fermentum", "method": "as §1"}, "L. casei 326": {"system": "L. casei 326", "assay_type": "cell-based, Lactobacillus casei", "method": "as §1"}, "L. casei 842": {"system": "L. casei 842", "assay_type": "cell-based, Lactobacillus casei", "method": "as §1"}, "S. mutans GS5": {"system": "S. mutans GS5", "assay_type": "cell-based, Streptococcus mutans", "method": "as §1"}, "S. mutans V262": {"system": "S. mutans V262", "assay_type": "cell-based, Streptococcus mutans", "method": "as §1"}, "P. pentosaceus FBB63C": {"system": "P. pentosaceus FBB63C", "assay_type": "cell-based, Pediococcus pentosaceus", "method": "as §1"}, "L. lactis LLA 1.0": {"system": "L. lactis LLA 1.0", "assay_type": "cell-based, Lactococcus lactis", "method": "as §1"}, "L. lactis LLA 2.0": {"system": "L. lactis LLA 2.0", "assay_type": "cell-based, Lactococcus lactis", "method": "as §1"}, "L. brevis 329": {"system": "L. brevis 329", "assay_type": "cell-based, Lactobacillus brevis", "method": "as §1"}, "L. brevis 888": {"system": "L. brevis 888", "assay_type": "cell-based, Lactobacillus brevis", "method": "as §1"}, "L. monocytogenes 38": {"system": "L. monocytogenes 38", "assay_type": "cell-based", "method": "as §1"}, "L. monocytogenes 36": {"system": "L. monocytogenes 36", "assay_type": "cell-based", "method": "as §1"}, "L. monocytogenes 59": {"system": "L. monocytogenes 59", "assay_type": "cell-based", "method": "as §1"}, "L. monocytogenes 08": {"system": "L. monocytogenes 08", "assay_type": "cell-based", "method": "as §1"}, "L. monocytogenes 62": {"system": "L. monocytogenes 62", "assay_type": "cell-based", "method": "as §1"}, "L. monocytogenes 69": {"system": "L. monocytogenes 69", "assay_type": "cell-based", "method": "as §1"}, "L. monocytogenes 04": {"system": "L. monocytogenes 04", "assay_type": "cell-based", "method": "as §1"}, "B. subtilis RM125": {"system": "B. subtilis RM125", "assay_type": "cell-based, Bacillus subtilis", "method": "as §1"}, "B. subtilis amylase^+": {"system": "B. subtilis amylase^+", "assay_type": "cell-based, Bacillus subtilis", "method": "as §1"}},
  "data": [
    {"substance": "nisin [Nisin Pure]", "values": [
      {"measurement": "inhibition of L. plantarum 346", "setting": "L. plantarum 346", "result": "+"},
      {"measurement": "inhibition of L. plantarum 355", "setting": "L. plantarum 355", "result": "+"},
      {"measurement": "inhibition of P. acidilactici A", "setting": "P. acidilactici A", "result": "+"},
      {"measurement": "inhibition of P. acidilactici D", "setting": "P. acidilactici D", "result": "+"},
      {"measurement": "inhibition of P. acidilactici B", "setting": "P. acidilactici B", "result": "+"},
      {"measurement": "inhibition of P. acidilactici PAC 1.0", "setting": "P. acidilactici PAC 1.0", "result": "+"},
      {"measurement": "inhibition of P. acidilactici C", "setting": "P. acidilactici C", "result": "+"},
      {"measurement": "inhibition of L. fermentum 342", "setting": "L. fermentum 342", "result": "+"},
      {"measurement": "inhibition of L. fermentum 701", "setting": "L. fermentum 701", "result": "+"},
      {"measurement": "inhibition of L. casei 326", "setting": "L. casei 326", "result": "+"},
      {"measurement": "inhibition of L. casei 842", "setting": "L. casei 842", "result": "+"},
      {"measurement": "inhibition of S. mutans GS5", "setting": "S. mutans GS5", "result": "+"},
      {"measurement": "inhibition of S. mutans V262", "setting": "S. mutans V262", "result": "-"},
      {"measurement": "inhibition of P. pentosaceus FBB63C", "setting": "P. pentosaceus FBB63C", "result": "+"},
      {"measurement": "inhibition of L. lactis LLA 1.0", "setting": "L. lactis LLA 1.0", "result": "+"},
      {"measurement": "inhibition of L. lactis LLA 2.0", "setting": "L. lactis LLA 2.0", "result": "+"},
      {"measurement": "inhibition of L. brevis 329", "setting": "L. brevis 329", "result": "+"},
      {"measurement": "inhibition of L. brevis 888", "setting": "L. brevis 888", "result": "+"},
      {"measurement": "inhibition of L. monocytogenes 38", "setting": "L. monocytogenes 38", "result": "+"},
      {"measurement": "inhibition of L. monocytogenes 36", "setting": "L. monocytogenes 36", "result": "+"},
      {"measurement": "inhibition of L. monocytogenes 59", "setting": "L. monocytogenes 59", "result": "+"},
      {"measurement": "inhibition of L. monocytogenes 08", "setting": "L. monocytogenes 08", "result": "+"},
      {"measurement": "inhibition of L. monocytogenes 62", "setting": "L. monocytogenes 62", "result": "+"},
      {"measurement": "inhibition of L. monocytogenes 69", "setting": "L. monocytogenes 69", "result": "+"},
      {"measurement": "inhibition of L. monocytogenes 04", "setting": "L. monocytogenes 04", "result": "+"},
      {"measurement": "inhibition of B. subtilis RM125", "setting": "B. subtilis RM125", "result": "+"},
      {"measurement": "inhibition of B. subtilis amylase^+", "setting": "B. subtilis amylase^+", "result": "+"}
    ]}
  ]
}
